Data taken from patent publication US9957271B2, “Substituted bicyclic aza-heterocycles and analogues as sirtuin modulators” (GlaxoSmithKline, LLC, priority 2012, dated 2018).

How the values were obtained:
SIRT1 [1] = target: T1, SIRT1 (Homo sapiens, UniProt Q96EB6); assay: Trp mass spectrometry assay of SIRT1 activity; format: biochemical; details: for Emax: read-out: Trp % Fold Act
T1 sequence (Q96EB6 1-747): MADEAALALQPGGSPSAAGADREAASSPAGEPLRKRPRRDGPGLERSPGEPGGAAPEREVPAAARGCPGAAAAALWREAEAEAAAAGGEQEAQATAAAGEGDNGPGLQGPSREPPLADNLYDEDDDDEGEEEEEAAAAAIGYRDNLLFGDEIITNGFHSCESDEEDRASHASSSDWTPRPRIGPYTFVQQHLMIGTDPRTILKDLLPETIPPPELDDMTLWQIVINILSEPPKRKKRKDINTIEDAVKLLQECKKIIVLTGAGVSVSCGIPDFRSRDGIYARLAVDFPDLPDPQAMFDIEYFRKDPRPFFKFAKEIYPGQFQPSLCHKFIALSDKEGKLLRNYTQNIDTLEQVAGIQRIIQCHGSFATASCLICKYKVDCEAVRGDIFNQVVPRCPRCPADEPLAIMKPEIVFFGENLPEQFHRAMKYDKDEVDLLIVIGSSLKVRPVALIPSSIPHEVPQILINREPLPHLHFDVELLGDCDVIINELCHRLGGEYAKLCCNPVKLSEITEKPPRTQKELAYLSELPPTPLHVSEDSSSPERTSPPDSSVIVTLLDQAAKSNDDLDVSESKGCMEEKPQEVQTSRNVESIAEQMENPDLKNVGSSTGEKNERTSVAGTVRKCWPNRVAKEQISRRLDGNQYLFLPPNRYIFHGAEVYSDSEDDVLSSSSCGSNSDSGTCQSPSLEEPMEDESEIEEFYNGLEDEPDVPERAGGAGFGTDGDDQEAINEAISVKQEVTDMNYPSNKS
Outline: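 His-tagged SIRT1 expressed in E. coli BL21(DE3), 10 nM, incubated 25 min at 25° C. with 0.5 μM Ac-RHKK(Ac)W-NH2 peptide and 120 μM βNAD+ in 50 mM HEPES pH 7.5, […], 1 mM DTT, 0.05% BSA; formic acid stop. OAADPR or deacetylated peptide measured by mass spectrometry; EC1.5 and percent maximum activation versus DMSO control.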

SIRT1 [2] = target: T1, SIRT1; assay: TAMRA based mass spectrometry assay of SIRT1 activity; format: biochemical; details: for Emax: read-out: TAMRA % Fold Act
Outline: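 Recombinant N-terminal His-tagged human SIRT1 (10 nM, E. coli) incubated 25 min at 25 °C with 0.5 μM 5TMR-labelled p53-derived acetyl-peptide and 120 μM βNAD+ in Tris-acetate pH 8 buffer with DTT and 0.05% BSA, compound at varying concentrations. Stopped with formic acid; deacetylated peptide or OAADPR measured by mass spectrometry relative to DMSO controls.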

[3] = Trp assay, concentration giving 150% activation of SIRT1
[4] = Trp assay, percent maximum fold activation
[5] = TAMRA assay, concentration giving 150% activation of SIRT1
[6] = TAMRA assay, percent maximum fold activation
[7] = concentration of test compound giving 150% activation of SIRT1, Trp peptide substrate
[8] = percent maximum fold activation of SIRT1, Trp peptide substrate
[9] = concentration of test compound giving 150% activation of SIRT1, TAMRA peptide substrate
[10] = percent maximum fold activation of SIRT1, TAMRA peptide substrate
[11] = Trp peptide substrate, concentration giving 150% activation of SIRT1
[12] = Trp peptide substrate, percent maximum fold activation
[13] = TAMRA peptide substrate, concentration giving 150% activation of SIRT1
[14] = TAMRA peptide substrate, percent maximum fold activation

Trp EC1.5 (μM) (SIRT1 [1]; [3]) | Emax (SIRT1 [1]; [4]) | TAMRA EC1.5 (μM) (SIRT1 [2]; [5]) | Emax (SIRT1 [2]; [6]) | further results | Compound
C (EC1.5>25 μM) | < 350% | C (EC1.5>25 μM) | < 350% |  | O=C(Nc1cnc2ccc(-c3ccccc3C(F)(F)F)nn12)c1ccnc(CN2CCCC2)c1 [Compound 214]
 |  |  |  | Trp EC1.5 (μM) (SIRT1 [1]; [7]): B (EC1.5 1-25 μM); Emax (SIRT1 [1]; [8]): < 350%; TAMRA EC1.5 (μM) (SIRT1 [2]; [9]): A (EC1.5<1 μM); Emax (SIRT1 [2]; [10]): ≥ 350% | O=C(Nc1cnc2ccc(-c3ccccc3C(F)(F)F)nn12)c1nccs1 [Compound 122]
C (EC1.5>25 μM) | < 350% | A (EC1.5<1 μM) | ≥ 350% |  | O=C(Nc1cnn2ccc(-c3ccccc3C(F)(F)F)nc12)c1cc(O)ncn1 [Compound 830]
 |  |  |  | Trp EC1.5 (SIRT1 [1]; [11]): A (EC1.5<1 μM); Emax (SIRT1 [1]; [12]): ≥ 350%; TAMRA EC1.5 (SIRT1 [2]; [13]): A (EC1.5<1 μM); Emax (SIRT1 [2]; [14]): ≥ 350% | Cc1csc(NC(=O)c2cnn3ccc(-c4ccccc4C(F)(F)F)nc23)n1 [Compound 508]
A (EC1.5<1 μM) | < 350% | B (EC1.5 1-25 μM) | < 350% |  | O=C(Nc1ccc(F)cn1)c1cnc2ccc(-c3ccccc3OC(F)(F)F)nn12 [Compound 360]
B (EC1.5 1-25 μM) | ≥ 350% | B (EC1.5 1-25 μM) | < 350% |  | Cc1nc2ccc(-c3ccccc3C(F)(F)F)nn2c1C(=O)Nc1ccnn1C(C)C [Compound 680]
B (EC1.5 1-25 μM) | < 350% | B (EC1.5 1-25 μM) | ≥ 350% |  | Cc1ccc(NC(=O)c2c(C)nc3ccc(-c4ccccc4C)nn23)nn1 [Compound 694]
B (EC1.5 1-25 μM) | < 350% | C (EC1.5>25 μM) | < 350% |  | Cc1cnc(NC(=O)c2cnn3ccc(-c4ccccc4C(F)(F)F)nc23)c(C)n1 [Compound 724]
B (EC1.5 1-25 μM) | ≥ 350% | A (EC1.5<1 μM) | ≥ 350% |  | Cc1ccc(NC(=O)c2cnn3ccc(-c4ccccc4C(F)(F)F)nc23)nc1 [Compound 618]
 |  |  |  | Trp EC1.5 (SIRT1 [1]; [11]): B (EC1.5 1-25 μM); Emax (SIRT1 [1]; [12]): < 350%; TAMRA EC1.5 (SIRT1 [2]; [13]): A (EC1.5<1 μM); Emax (SIRT1 [2]; [14]): ≥ 350% | O=C(Nc1cccnn1)c1cnn2ccc(-c3ccccc3C(F)(F)F)nc12 [Compound 505]
A (EC1.5<1 μM) | ≥ 350% | B (EC1.5 1-25 μM) | < 350% |  | Cc1ccncc1NC(=O)c1cnn2ccc(-c3ccccc3OC(F)(F)F)nc12 [Compound 610]
B (EC1.5 1-25 μM) | ≥ 350% | A (EC1.5<1 μM) | ≥ 350% |  | O=C(Nc1cncc(F)c1)c1cnn2ccc(-c3ccccc3C(F)(F)F)nc12 [Compound 642]
A (EC1.5<1 μM) | ≥ 350% | A (EC1.5<1 μM) | ≥ 350% |  | Cc1cc(NC(=O)c2cnn3ccc(-c4ccccc4OC(F)(F)F)nc23)ccn1 [Compound 612]
B (EC1.5 1-25 μM) | < 350% | A (EC1.5<1 μM) | < 350% |  | Cc1cc(NC(=O)c2cnc3ccc(-c4ccccc4F)nn23)cc(C)n1 [Compound 257]
C (EC1.5>25 μM) | < 350% | C (EC1.5>25 μM) | < 350% |  | O=C(Nc1cnc2ccc(-c3ccccc3F)nn12)c1ccncn1 [Compound 281]
 |  |  |  | Trp EC1.5 (μM) (SIRT1 [1]; [7]): C (EC1.5>25 μM); Emax (SIRT1 [1]; [8]): < 350%; TAMRA EC1.5 (μM) (SIRT1 [2]; [9]): A (EC1.5<1 μM); Emax (SIRT1 [2]; [10]): ≥ 350% | O=C(Nc1cccc(CN2CCOCC2)n1)c1cnc2ccc(-c3cccc(F)c3F)nn12 [Compound 47]
 |  |  |  | Trp EC1.5 (SIRT1 [1]; [11]): A (EC1.5<1 μM); Emax (SIRT1 [1]; [12]): < 350%; TAMRA EC1.5 (SIRT1 [2]; [13]): B (EC1.5 1-25 μM); Emax (SIRT1 [2]; [14]): < 350% | Cc1nn2ccc(-c3ccccc3C(F)(F)F)nc2c1C(=O)Nc1cccc(O)n1 [Compound 577]
C (EC1.5>25 μM) | < 350% | B (EC1.5 1-25 μM) | < 350% |  | Cc1ccc(C(=O)Nc2cnc3ccc(-c4ccccc4C(F)(F)F)nn23)cn1 [Compound 393]
 |  |  |  | Trp EC1.5 (SIRT1 [1]; [11]): B (EC1.5 1-25 μM); Emax (SIRT1 [1]; [12]): < 350%; TAMRA EC1.5 (SIRT1 [2]; [13]): A (EC1.5<1 μM); Emax (SIRT1 [2]; [14]): ≥ 350% | Cc1cccc(NC(=O)c2c(C)nc3c(C)cc(-c4ccccc4OC(F)(F)F)nn23)n1 [Compound 480]
 |  |  |  | Trp EC1.5 (SIRT1 [1]; [11]): C (EC1.5>25 μM); Emax (SIRT1 [1]; [12]): < 350%; TAMRA EC1.5 (SIRT1 [2]; [13]): A (EC1.5<1 μM); Emax (SIRT1 [2]; [14]): ≥ 350% | Cc1cc(C)nc(C(=O)Nc2cnn3ccc(-c4ccccc4C(F)(F)F)nc23)c1 [Compound 524]
 |  |  |  | Trp EC1.5 (SIRT1 [1]; [11]): A (EC1.5<1 μM); Emax (SIRT1 [1]; [12]): ≥ 350%; TAMRA EC1.5 (SIRT1 [2]; [13]): B (EC1.5 1-25 μM); Emax (SIRT1 [2]; [14]): < 350% | O=C(Nc1cccc(N2CCOCC2)n1)c1cnc2ccc(N3CC[C@H](F)C3)nn12 [Compound 487, (S)-6-(3-fluoropyrrolidin-1-yl)-N-(6-morpholinopyridin-2-yl)imidazo[1,2-b]pyridazine-3-carboxamide]
B (EC1.5 1-25 μM) | < 350% | A (EC1.5<1 μM) | ≥ 350% |  | CC(C)c1csc(C(=O)Nc2cnc3ccc(-c4ccccc4C(F)(F)F)nn23)n1 [Compound 272]
A (EC1.5<1 μM) | ≥ 350% | A (EC1.5<1 μM) | ≥ 350% |  | Cc1cncc(NC(=O)c2cnn3ccc(-c4ccccc4OC(F)(F)F)nc23)c1 [Compound 616]
C (EC1.5>25 μM) | < 350% | A (EC1.5<1 μM) | ≥ 350% |  | Cc1cc(NC(=O)c2cnc3ccc(-c4ccccc4C(F)(F)F)nn23)nc(C)n1 [Compound 238]
A (EC1.5<1 μM) | < 350% | A (EC1.5<1 μM) | ≥ 350% |  | N#Cc1ccccc1-c1ccc2ncc(NC(=O)c3cccc(OCC(O)CO)n3)n2n1 (stereo not drawn) [Compound 339]
C (EC1.5>25 μM) | < 350% | C (EC1.5>25 μM) | < 350% |  | O=C(Nc1cnn2ccc(-c3ccccc3C(F)(F)F)nc12)c1ccncc1 [Compound 251]
 |  |  |  | Trp EC1.5 (SIRT1 [1]; [11]): A (EC1.5<1 μM); Emax (SIRT1 [1]; [12]): < 350%; TAMRA EC1.5 (SIRT1 [2]; [13]): A (EC1.5<1 μM); Emax (SIRT1 [2]; [14]): ≥ 350% | O=C(Nc1ccccn1)c1cnn2ccc(-c3ccccc3OC(F)(F)F)nc12 [Compound 529]
